Laboratory results from ChEMBL document CHEMBL2202961, “Antiproliferative activity of salinomycin and its derivatives” (Bioorg Med Chem Lett, 2012).
≈ marks a conversion by molar mass, not a printed value.

How the values were obtained:
BALB/3T3 [1] = assay: Cytotoxicity against mouse BALB/3T3 cells incubated for 72 hrs by MTT assay; format: cell-based; settings: BALB/3T3, 72 h
BALB/3T3 [2] = assay: Selectivity index, ratio of IC50 for mouse BALB/3T3 cells to IC50 for human vincristine-resistant human HL60/Vinc cells; format: functional
[3] = Cytotoxicity against vincristine-resistant human HL60/Vinc cells incubated for 72 hrs by MTT assay; format: functional, cell-based
[4] = Cytotoxicity against doxorubicin-resistant human LoVo/DX cells incubated for 72 hrs by MTT assay; format: functional, cell-based
BALB/3T3 [5] = assay: Selectivity index, ratio of IC50 for mouse BALB/3T3 cells to IC50 doxorubicin-resistant human LoVo/DX cells
HL-60 [6] = assay: Cytotoxicity against human HL60 cells incubated for 72 hrs by MTT assay; settings: HL-60, 72 h
BALB/3T3 [7] = assay: Selectivity index, ratio of IC50 for mouse BALB/3T3 cells to IC50 for human HL60 cells; format: functional
HL-60 [8] = assay: Resistance index, ratio of IC50 for vincristine-resistant human HL60/Vinc cells to IC50 for parental human HL60 cells; format: functional
LoVo [9] = assay: Cytotoxicity against human LoVo cells incubated for 72 hrs by MTT assay; format: functional, cell-based
LoVo [10] = assay: Resistance index, ratio of IC50 for doxorubicin-resistant human LoVo/DX cells to IC50 for parental human LoVo cells; format: functional
LoVo [11] = assay: Selectivity index, ratio of IC50 for mouse BALB/3T3 cells to IC50 for human LoVo cells; format: functional
Staphylococcus aureus = assay: Antimicrobial activity against methicillin-resistant Staphylococcus aureus; format: functional

SMILES	IC50 (BALB/3T3 [1])	Ratio IC50 (BALB/3T3 [2])	IC50 [3]	IC50 [4]	Ratio IC50 (BALB/3T3 [5])	IC50 (HL-60 [6])	Ratio IC50 (BALB/3T3 [7])	Ratio IC50 (HL-60 [8])	IC50 (LoVo [9])	Ratio IC50 (LoVo [10])	Ratio IC50 (LoVo [11])	MIC (Staphylococcus aureus)
CC[C@@H](C(=O)[C@@H](C)[C@@H](O)[C@H](C)[C@@H]1O[C@@H]([C@@H](CC)C(=O)Nc2ccccc2)CC[C@@H]1C)[C@H]1O[C@]2(C=C[C@@H](O)[C@]3(CC[C@@](C)([C@H]4CC[C@](O)(CC)[C@H](C)O4)O3)O2)[C@H](C)C[C@@H]1C	7.08 µM	1.64	4.31 µM	3.21 µM	2.21	3.79 µM	1.86	1.14	4.11 µM	0.78	1.72	
CCCCNC(=O)[C@H](CC)[C@H]1CC[C@H](C)[C@H]([C@@H](C)[C@H](O)[C@H](C)C(=O)[C@H](CC)[C@H]2O[C@]3(C=C[C@@H](O)[C@]4(CC[C@@](C)([C@H]5CC[C@](O)(CC)[C@H](C)O5)O4)O3)[C@H](C)C[C@@H]2C)O1	8.21 µM	1.55	5.31 µM	3.26 µM	2.56	3.88 µM	2.12	1.37	4.04 µM	0.81	2.03	
CC[C@@H](C(=O)[C@@H](C)[C@@H](O)[C@H](C)[C@@H]1O[C@@H]([C@@H](CC)C(=O)NCc2ccccc2)CC[C@@H]1C)[C@H]1O[C@]2(C=C[C@@H](O)[C@]3(CC[C@@](C)([C@H]4CC[C@](O)(CC)[C@H](C)O4)O3)O2)[C@H](C)C[C@@H]1C	7.26 µM	1.21	6.02 µM	3.31 µM	2.19	3.63 µM	2	1.66	4.02 µM	0.82	1.81	
CC[C@@H](C(=O)[C@@H](C)[C@@H](O)[C@H](C)[C@@H]1O[C@@H]([C@@H](CC)C(=O)NCCc2c[nH]c3ccccc23)CC[C@@H]1C)[C@H]1O[C@]2(C=C[C@@H](O)[C@]3(CC[C@@](C)([C@H]4CC[C@](O)(CC)[C@H](C)O4)O3)O2)[C@H](C)C[C@@H]1C	9.98 µM	2.31	4.31 µM	2.78 µM	3.59	3.52 µM	2.84	1.22	3.45 µM	0.81	2.9	
CC[C@@H](C(=O)[C@@H](C)[C@@H](O)[C@H](C)[C@@H]1O[C@@H]([C@@H](CC)C(=O)NCCOCCOCCOC)CC[C@@H]1C)[C@H]1O[C@]2(C=C[C@@H](O)[C@]3(CC[C@@](C)([C@H]4CC[C@](O)(CC)[C@H](C)O4)O3)O2)[C@H](C)C[C@@H]1C	39.1 µM	1.34	29.1 µM	30.6 µM	1.28	24.9 µM	1.57	1.17	29.9 µM	1.03	1.31	
CC[C@@H](C(=O)[C@@H](C)[C@@H](O)[C@H](C)[C@@H]1O[C@@H]([C@@H](CC)C(=O)On2nnc3ccccc32)CC[C@@H]1C)[C@H]1O[C@]2(C=C[C@@H](O)[C@]3(CC[C@@](C)([C@H]4CC[C@](O)(CC)[C@H](C)O4)O3)O2)[C@H](C)C[C@@H]1C	31.9 µM	6.08	5.25 µM	6.61 µM	4.83	1.84 µM	17.33	2.85	4.11 µM	1.61	7.76	1 µg/mL (≈ 1.15 µM)
CC[C@@H](C(=O)[C@@H](C)[C@@H](O)[C@H](C)[C@@H]1O[C@@H]([C@@H](CC)C(=O)Nc2ccc3c(c2)OCCOCCOCCOCCO3)CC[C@@H]1C)[C@H]1O[C@]2(C=C[C@@H](O)[C@]3(CC[C@@](C)([C@H]4CC[C@](O)(CC)[C@H](C)O4)O3)O2)[C@H](C)C[C@@H]1C	25.5 µM	3.71	6.87 µM	5.65 µM	4.51	3.08 µM	8.27	2.23	6.24 µM	0.91	4.08	
CC[C@@H](C(=O)[C@@H](C)[C@@H](O)[C@H](C)[C@@H]1O[C@@H]([C@@H](CC)C(=O)NCCCN2CCOCC2)CC[C@@H]1C)[C@H]1O[C@]2(C=C[C@@H](O)[C@]3(CC[C@@](C)([C@H]4CC[C@](O)(CC)[C@H](C)O4)O3)O2)[C@H](C)C[C@@H]1C	34.7 µM	1.23	28.1 µM	19.4 µM	1.78	5.63 µM	6.16	4.99	18 µM	1.08	1.92	
COc1cccc2c1C(=O)c1c(O)c3c(c(O)c1C2=O)C[C@@](O)(C(=O)CO)C[C@@H]3O[C@H]1C[C@H](N)[C@H](O)[C@H](C)O1 [DOXORUBICIN]	1.91 µM		0.91 µM	12.1 µM					0.38 µM			
CC[C@@H](C(=O)[C@@H](C)[C@@H](O)[C@H](C)[C@@H]1O[C@@H]([C@@H](CC)C(=O)O)CC[C@@H]1C)[C@H]1O[C@]2(C=C[C@@H](O)[C@]3(CC[C@@](C)([C@H]4CC[C@](O)(CC)[C@H](C)O4)O3)O2)[C@H](C)C[C@@H]1C [SALINOMYCIN]	28.1 µM	8.16	3.44 µM	6.23 µM	4.51	0.44 µM	63.81	7.82	1.11 µM	5.61	25.3	
